These results are taken from publication PMC4816084 (Bioorganic & medicinal chemistry letters, 2016).

Data set [1] in a line: Metabolic stability in mouse liver microsomes. To be noted: for susceptibility to glucuronidation (in words): liver microsomes with UDPGA; for stability in the presence of NADPH (in words): mouse liver microsomes. Type of data set: in vitro ADME. Background: Liver microsomes are a subcellular fraction often used to study metabolism.
The conditions of data set [2]: cited from earlier work; for susceptibility to glucuronidation (in words): liver microsomes with UDPGA, 60 min.
The conditions of data set [3]: mice; cited from earlier work.
For data set [4], the system named is plasma D-serine levels. To be noted: mice, oral co-administration with D-serine; cited from earlier work.
The subject of data set [5] is dizocilpine-induced prepulse inhibition deficits. The settings on record: mouse, with D-serine exposure enhancement; cited from earlier work.
The nature of data set [6]: Binding to mouse plasma protein. The data set is classed as in vitro ADME.
Data set [7] deals with plasma D-serine levels. The experiment in a line: Effect on D-serine plasma pharmacokinetics after oral co-administration in mice. The data set is classed as in vivo. The settings on record: inhibitor and D-serine both 30 mg/kg po.
The nature of data set [8]: Plasma pharmacokinetics after oral administration in mice. The settings on record: 30 mg/kg po.
For another data set, the target named is recombinant human DAAO (Homo sapiens, UniProt P14920). Briefly: Inhibition of recombinant human DAAO. The data set is classed as biochemical. The settings on record: human DAAO IC50 ratio.
Chain of recombinant human DAAO (P14920 whole entry): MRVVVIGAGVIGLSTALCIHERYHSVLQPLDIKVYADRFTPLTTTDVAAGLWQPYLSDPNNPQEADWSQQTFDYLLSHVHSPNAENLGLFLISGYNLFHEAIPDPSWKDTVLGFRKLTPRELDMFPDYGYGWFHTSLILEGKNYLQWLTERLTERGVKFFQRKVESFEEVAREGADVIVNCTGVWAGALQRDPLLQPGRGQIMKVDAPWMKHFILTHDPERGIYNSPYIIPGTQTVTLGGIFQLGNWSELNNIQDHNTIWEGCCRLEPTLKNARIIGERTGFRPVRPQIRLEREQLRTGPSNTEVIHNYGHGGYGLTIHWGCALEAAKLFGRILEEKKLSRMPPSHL

Like-named read-outs stand apart in the source and are kept apart here.

Consider `O=c1[nH]nc(SCc2ccc3cc(F)ccc3c2)nc1O` [Compound 6m, 3-((6-fluoronaphthalen-2-yl)methylthio)-6-hydroxy-1,2,4-triazin-5(2H)-one], for which, in data set [1], the “susceptibility to glucuronidation (in words)” value (from here on “susceptibility”) is “resistant to glucuronidation” and the “stability in the presence of NADPH (in words)” value is on record as “stable”.
Turning to `O=c1cc(CSc2ccc(Cl)c(Cl)c2)occ1O` [Compound 1], in [2], the “susceptibility” value was “extensively glucuronidated”. Besides, in [2] (mouse liver microsomes), the “% remaining after 60 min w/UDPGA” value was 5%.
Regarding `O=c1[nH]c(=O)n(Cc2cccc3ccccc23)nc1O` [Compound 3], in data set [2], the “susceptibility” value was “complete resistance to glucuronidation”. In addition, the “AUC following oral administration” value in [3] was 12900 ng·h/mL. Moreover, the “degree of enhancement in plasma D-serine levels” value in the data set on plasma D-serine levels [4] is 2.2 fold.
`O=c1[nH]oc2cc(Cl)ccc12` [CBIO, 6-chloro-1,2-benzisoxazol-3(2H)-one]: the “effect on dizocilpine-induced prepulse inhibition deficits” value in [5] is recorded as “attenuation”.
For the molecule `O=c1[nH]nc(CCc2cc(F)cc(F)c2)cc1O` [Compound 2b], in [2], the “susceptibility” value is on record as “some degree of metabolic stability”. Moreover, in data set [2] (mouse liver microsomes, NADPH), the “% remaining after 60 min w/NADPH” value is 92%. Also, the “% remaining after 60 min w/UDPGA” value in data set [2] (mouse liver microsomes) is on record as 59%.
On to `O=c1[nH]nc(CCc2ccccc2)nc1O` [Compound 6b, 6-hydroxy-3-phenethyl-1,2,4-triazin-5(2H)-one], for which, in data set [1], the “susceptibility” value was “resistant to glucuronidation” and the “stability in the presence of NADPH (in words)” value is given as “stable”. The “binding to mouse plasma protein” value in data set [6] came out at 74%. Moreover, in the data set on plasma D-serine levels [7], the “D-serine AUC0–6hr on co-administration” value worked out at 74.2 µg·h/mL. In data set [8], the “time of Cmax after administration” value turned out to be 30 min.
As to `O=c1[nH]nc(SCc2ccc(-c3ccccc3)cc2)nc1O` [Compound 6j], on recombinant human DAAO, the “fold more potent than the corresponding meta-phenyl derivative 6k” value was determined as 8 fold.
